Measurements taken from US11844801B2, “Oral compositions of MK2 pathway inhibitor for treatment of immune conditions” (priority 2020, dated 2023).

Columns and labels:
clinical = settings: male, human, in vivo
TNF-α = test: Rat whole blood LPS stimulated TNF-α; assay type: cell-based; settings: 100 ng/mL, 4 hr
IL-6 = test: Ex vivo LPS-stimulated IL-6 in blood of dosed healthy subjects, PK/PD inhibitory Emax model; parameters: species or system human
Description: Blood samples of 10 mL were collected for PD analysis. For the SAD cohorts, blood was collected before dosing and 1, 12, and 24 hours after dosing. For the MAD cohorts, on day 1 blood was collected before the morning dose and 4 and 12 hours after the morning dose (prior to the evening dose); on day 7, blood was collected before the morning dose and 4 and 12 hours after the morning dose.
Additional details of the assays for analyzing p-HSP27 and cytokines are included in the Supplementary Information.
Pharmacodynamics. PD data analysis was conducted using Microsoft Excel 2010 (Microsoft, Redmond, WA), Meso Scale Discovery Workbench® analysis software (Rockville, MD), and Phoenix WinNonlin, version 8.2.
Sample Preparation for Cytokine Analysis. For each sample, 180 μL aliquots were transferred into 7 wells of a round bottom 96 well tissue culture polystyrene low evaporation plate. […] No outer wells on the plates were used and all wells surrounding the samples contained 200 μL of phosphate buffered saline.
DMSO was added to all wells in groups ‘A’ and ‘C’ to a final concentration of 0.1% ([…] of a 2% DMSO solution in DMEM containing 10% FBS and 1% penicillin/streptomycin/glutamine). […] Samples were mixed gently for 30 seconds on a plate shaker using pin tools, then placed in an incubator at 37° C./5% CO2 for 1 hour.
Samples in groups ‘A’ and ‘B’ were stimulated with lipopolysaccharide at a final concentration of 100 ng/mL. A stock solution of lipopolysaccharide at 1 mg/mL in DMEM containing 10% FBS and 1% penicillin/streptomycin was diluted to […] in DMEM containing 10% FBS and 1% penicillin/streptomycin, and […] of this working solution was added per well of blood for all samples in groups ‘A’ and ‘B’. […] of DMEM containing 10% FBS only was added per well of blood for all samples in group ‘C’ (unstimulated samples). Samples were mixed gently for 30 seconds on a plate shaker using pin tools, then placed in an incubator at 37° C./5% CO2 for 5 hours.
Following the incubation, the plates were removed from the incubator and sealed with adhesive clear plate seals. The plates were then centrifuged for 10 minutes at 1800×g at room temperature. […] of plasma was removed from each well and transferred to a 96-well polypropylene round bottom master plate, which was then sealed and frozen at −80° C. until all samples from the respective cohort were generated. Once all samples from a given cohort were generated, the samples were analyzed for cytokine (TNF-α, IL-1b, IL-6, and IL-8) production using Meso Scale Discovery Technology.
Analysis of Cytokine Levels Using Meso Scale Discovery Technology. All lipopolysaccharide plasma samples were analyzed for cytokine production with a V-Plex Human Proinflammatory Panel II (4-Plex) Kit from Meso Scale Discovery (Rockville, MD). The master plates containing the plasma samples were thawed on ice, and a daughter plate consisting of a 25-fold dilution of each plasma sample (3 μL of plasma plus 72 μL of Meso Scale Discovery Diluent 2) was generated for each master plate. The diluted plasma samples from the daughter plates were used in the cytokine analysis. The Meso Scale Discovery 4-plex plates were washed 3 times with 150 μL/well of wash buffer (1×KPL phosphate buffered saline with Tween 20 from SeraCare [Milford, MA]). Prepared calibrators and the samples from the daughter plates were added to the washed Meso Scale Discovery 4-plex plates at 50 μL/well. The 4-plex plates were sealed and shaken overnight at 4° C.
After the overnight incubation, the samples were removed by decanting. The 4-plex plates were then washed 3 times with 150 μL/well of wash buffer. […]

[1] = Phase 1 SAD/MAD safety and tolerability in healthy subjects (incl. 80/120 mg BID extension)
Description: Single ascending dose (SAD) cohorts.
Multiple ascending dose (MAD) cohorts. […] Subjects were admitted to the clinical facility on day −1 and remained at the site until 72 hours after the morning dose on day 7.
Safety and Tolerability Assessments. Adverse events, clinical laboratory tests, vital signs, an electrocardiogram, Holter monitoring, and physical examination results were evaluated for each subject in both parts of the study.
Methods: Safety, pharmacokinetics (PK) and pharmacodynamics (PD) were assessed in two cohorts of subjects in a randomized, observer-blind, placebo-controlled study in male and female healthy subjects aged 18-55 (n=77). The study consisted of twenty (20) subjects enrolled into 2 cohorts. […] The final dose was administered in the morning on Day 7. Blood samples were obtained Day 1—before dosing, Day 1—4 hours after dosing and Day 1—12 hours after dosing and Day 7—before dosing, Day 7—4 hours after dosing, day 7—12 hour after dosing and Day 7—24 hours after dosing for each subject.

[2] = tested on: IP10, IFNγ, IL-6, IL-8 and TNF-α; test: Poly(I:C) (TLR3) stimulated cytokines and chemokines in human whole blood; assay type: cell-based; settings: poly(I:C) 100 μg/mL, 24 hours
Description: Human whole blood assays were performed as described above with the exceptions listed below. […] Compounds were serially diluted in 100% DMSO (Sigma-Aldrich, D2650) followed by a 25× dilution into DMEM/10% FBS (Gibco, 11965/26140). After the one-hour incubation with the compounds or vehicle, 20 μL of poly(I:C) (InvivoGen, HMW, tlrl-pic), in DPBS (Gibco, 14190-136) was added for a final concentration of 100 μg/mL to each well except for the no stimulus wells. After twenty-four hours of incubation with poly(I:C), plasma was harvested and assayed for IP10, IFNγ, IL-6, IL-8 and TNF-α using Meso Scale Discovery Technology V-plex human cytokine kits according to the kit protocol.

[3] = all ATI-450 SAD and MAD cohorts, 3/48
[4] = all ATI-450 SAD and MAD cohorts, n = 48

Cc1cnc(-c2ccnc(C(C)(C)O)n2)cc1-n1c(C)cc(OCc2ncc(F)cc2F)c(Cl)c1=O (single isomer, unassigned) [ATI-450, 3-chloro-4-((3,5-difluoropyridin-2-yl)methoxy)-2′-(2-(2-hydroxypropan-2-yl)pyrimidin-4-yl)-5′,6-dimethyl-2H-[1,4′-bipyridin]-2-one]
Tmax (clinical): 2 h | IC50 (TNF-α): 14.3 ± 1.9 nM | Cmax (Multiple of IC80) (IL-6; 50 mg BID, day 7): 0.3x | Ctrough (Multiple of IC80) (IL-6; 50 mg BID, day 7): 0.1x | inhibition at 50 mg (IL-6; Homo sapiens, 50 mg BID, part of the dosing interval): > 50% | IC80 (IL-6; Homo sapiens, calculated from IC50, combined SAD and MAD data, read-out: IC80, plasma concentration at 80% of maximal inhibition): 0.748 µg/mL | IC50 (IL-6; Homo sapiens, inhibitory Emax model, combined SAD and MAD data, read-out: IC50, plasma concentration at half maximal inhibition): 0.187 µg/mL | IC80, plasma concentration at 80% of maximal inhibition (IL-6; calculated from IC50, combined SAD and MAD data): 0.7478 µg/mL | subjects with TEAEs considered related to the study drug ([1]; 10 mg BID cohort, 1 of 8): 13% | subjects with TEAEs considered related to the study drug ([1]; 30 mg BID cohort, 5 of 8): 63% | subjects with TEAEs considered related to the study drug ([1]; 50 mg BID cohort, 3 of 8): 38% | neutrophils ([1]; 50 mg BID, day 7 (baseline 3318.4 cells/μL)): 2514.4 cells/μL | mean reduction in neutrophils ([1]; 50 mg BID, day 7 vs baseline): 24% | Constipation, AE, n (%) ([1]; 80 mg BID, 7 days, n = 8): 1 (14%) | Dizziness, AE, n (%) ([1]; 80 mg BID, 7 days, n = 8): 2 (25%) | Headache, AE, n (%) ([1]; 80 mg BID, 7 days, n = 8): 2 (25%) | Xerosis, AE, n (%) ([1]; 80 mg BID, 7 days, n = 8): 1 (13%) | tolerability ([1]; 80 mg and 120 mg BID, 7 days): well tolerated with no severe adverse effects reported | Abdominal Pain, AE, n (%) ([1]; 120 mg BID, 7 days, n = 8): 1 (13%) | Dizziness, AE, n (%) ([1]; 120 mg BID, 7 days, n = 8): 6 (75%) | Headache, AE, n (%) ([1]; 120 mg BID, 7 days, n = 8): 7 (88%) | Loose stools, AE, n (%) ([1]; 120 mg BID, 7 days, n = 8): 1 (13%) | Nausea, AE, n (%) ([1]; 120 mg BID, 7 days, n = 8): 2 (25%) | Parasthesia, AE, n (%) ([1]; 120 mg BID, 7 days, n = 8): 2 (25%) | Pharyngitis, AE, n (%) ([1]; 120 mg BID, 7 days, n = 8): 1 (13%) | Xerosis, AE, n (%) ([1]; 120 mg BID, 7 days, n = 8): 5 (63%) | neutrophils, laboratory change ([1]; MAD cohort, maximum effect Day 2 to Day 5): dose dependent reduction in neutrophils | character of TEAEs ([1]; MAD cohorts 10-50 mg BID): mild, transient, and resolved without sequelae | deaths, serious adverse events ([1]; MAD cohorts 10-50 mg BID): no deaths or SAEs | subjects with TEAEs considered related to the study drug ([1]; MAD cohorts 10-50 mg BID, 9 of 24): 38% | subjects reporting TEAEs ([1]; MAD cohorts 10-50 mg BID, 12 of 24): 50% | vital signs, electrocardiograms, clinical laboratory values ([1]; SAD and MAD cohorts): No clinically significant findings | character of TEAEs ([1]; SAD cohorts): mild, transient, and resolved without sequelae | deaths, serious adverse events, discontinuations ([1]; SAD cohorts): No deaths or serious adverse events (SAEs) | subjects with TEAEs considered related to the study drug ([1]; SAD cohorts, 4 of 24): 17% | subjects reporting TEAEs ([1]; SAD cohorts, 7 of 24): 29% | constipation, subjects with adverse event [1, 3]: 6.3% | upper respiratory tract infection, subjects with adverse event [1, 3]: 6.3% | dizziness, subjects with adverse event ([1]; all ATI-450 SAD and MAD cohorts, 6/48): 12.5% | Abdominal pain, treatment-emergent adverse event, n subjects [1, 4]: 2 | Constipation, treatment-emergent adverse event, n subjects [1, 4]: 3 | Dizziness, treatment-emergent adverse event, n subjects [1, 4]: 6 | Headache, treatment-emergent adverse event, n subjects [1, 4]: 10 | Nausea, treatment-emergent adverse event, n subjects [1, 4]: 2 | Upper respiratory tract infection, treatment-emergent adverse event, n subjects [1, 4]: 3 | Vomiting, treatment-emergent adverse event, n subjects [1, 4]: 0 | subjects with TEAEs considered related to the study drug ([1]; single dose 10 mg cohort): 0 subjects | subjects with TEAEs considered related to the study drug ([1]; single dose 30 mg cohort): 33% | subjects with TEAEs considered related to the study drug ([1]; single dose 50 mg cohort): 17% | subjects with TEAEs considered related to the study drug ([1]; single dose 100 mg cohort): 1 subject | safety and tolerability ([1]; single doses up to 100 mg, multiple doses up to 50 mg BID for 7 days): generally safe and well tolerated | IC50 [2]: 10 to 100 nM
